Entries after “also recorded” stand apart in the source; their conditions may differ.
Legend:
[1] = Solubility relative to CSRM617; format: physicochemical
22Rv1 cells = experiment: CellTiter-Glo cell viability of CSRM617 derivatives in 22Rv1; format: cell-based, human; conditions: for potency (IC50) compared with compound CSRM617: 100 μM to 0.2 μM, 48 hours; for cell viability: 48 hours post treatment, CellTiter-Glo
Procedure: FIG. 17A: 22Rv1 cells were plated at a density of 1000 cells per well, in triplicate, in a 96 well plate. The next day cells were exposed to compound CSRM617, several derivatives or vehicle (1% DMSO) at a concentration of 25 μM. Viability was measured 48 hours post treatment using CellTiter-Glo Luminescent Cell Viability Assay (Promega). FIG. 17B: 22Rv1 cells were plated at a density of 1000 cells per well, in triplicate, in a 96 well plate. The next day, TO reading was collected and cells were exposed to compound CSRM617, the derivatives or vehicle (1% DMSO) at 2-fold concentration ranging from 100 μM to 0.2 μM. Viability was measured 48 hours post treatment using CellTiter-Glo Luminescent Cell Viability Assay (Promega).

PEG10 mRNA = PEG10 mRNA expression in 22Rv1 (microarray); format: cell-based, human; conditions: 10 μM, 4, 6 and 16 h
Procedure: FIG. 16A-FIG. 16C depict in accordance with various embodiments of the invention, that OC2 activates PEG10, a driver of transdifferentiation from adenocarcinoma to neuroendocrine cancer. […] FIG. 16C: we have generated gene expression microarray data from 22Rv1 cells treated with the compound at a concentration of 10 μM for 4, 6 and 16 h. […] By inhibiting OC2 with compound CSRM617 the expression levels of the NE driver PEG10 are reduced.
(§1) To assess whether OC2 might be inhibited with a small molecule, we developed a structural model of OC2 binding to DNA using homology modeling, and conducted a virtual screen of a chemical library consisting of […] compounds. 15 compounds were selected for biological activity testing using in vitro assays. One compound, compound CSRM617, was deemed to be biologically active and was selected for further study. […] To evaluate the selectivity of Compound CSRM617 for genes regulated by OC2, we generated gene expression microarray data from 22Rv1 cells treated with Compound CSRM617 for 4, 6 and 16 h. […] As described above, we identified PEG10 as a gene directly regulated by OC2 binding to the PEG10 promoter. […] The OC2 HOX fragment bound with high affinity (Kd=1 nM) to a DNA probe corresponding to the experimentally determined OC2 binding motif in the PEG10 promoter (FIG. 25A, right panel).

[2] = tested on: human prostate cancer cell lines; experiment: Growth, apoptosis and IC50 across prostate cell lines versus OC2 expression; format: cell-based; conditions: PC cell lines that express medium to high levels of OC2
Procedure: (§2) ACTB and GAPDH expression levels were used for normalization. […] Cells were seeded in 96-well plates at 500 cells per well in a total volume of 100 ul media containing 10% FBS. Serially diluted compound CSRM617 was added to the cells 24 h later. After 48 h incubation, cell viability was assessed by Cell-Titer GLO (Promega). The values were normalized and IC50 was calculated using GraphPad Prism software. […] RWPE-1 is a benign prostate cell line.
as §1

OC2 target genes = experiment: Gene expression microarray and GSEA of OC2 target genes in 22Rv1; format: cell-based, human; conditions: 10 μM, 4, 6 and 16 h
Procedure: FIG. 14A-FIG. 14E depict in accordance with various embodiments of the invention, Compound CSRM617 perturbs OC2-regulated genes and suppresses 22Rv1 tumor growth in mice. To evaluate the specificity of CSRM617 for genes regulated by OC2, we generated gene expression microarray data from 22Rv1 cells treated with the compound at a concentration of 10 μM for 4, 6 and 16 h.
as §1

22Rv1 metastases = experiment: 22Rv1 intracardiac injection metastasis model; format: in vivo, SCID mice; conditions: 50 mg/kg daily; 4 w after intracardiac injection
Procedure: FIG. 15 depicts in accordance with various embodiments of the invention, Compound CSRM617 inhibits metastasis. 22Rv1-luciferase labeled cells were injected intracardially and mice were randomized (n=7 per group) to receive vehicle or 50 mg/kg^−1 CSRM617, daily. BLI images of mice bearing metastatic tumors 4 w after the injection (left) and graphical representation of normalized BLI signals (right). Mean±SD (n=7 per group) is shown; **P<0.01.
(§3) To determine whether Compound CSRM617 is effective against CRPC metastases, 22Rv1 cells were injected intracardially in SCID mice, and the animals were subsequently treated with the above dose of the compound for several weeks. […] To test for evidence of bioactivity of Compound CSRM617 in situ, PEG10 protein levels were measured using IHC followed by digital imaging in adrenal gland tumors.

[3] = Tolerability in treated mice (body weight, feeding, behavior); format: in vivo; conditions: 50 mg/Kg/d
Procedure: as §3

22RV1 = experiment: Cell-Titer GLO viability / proliferation in 22RV1; format: cell-based, human
Procedure: as §2

PEG10 protein = PEG10 protein by IHC and digital imaging in tumors of treated mice; format: in vivo; conditions: adrenal gland tumors; IHC
Procedure: as §3

[4] = tested on: 22RV1 prostate cancer cells; experiment: Apoptosis induction by cleaved Caspase-3 and PARP in 22RV1; format: cell-based, human
Source text: GAPDH served as a loading control.

[5] = target: T1, purified recombinant OC2 HOX domain (Homo sapiens, UniProt O95948); experiment: Surface plasmon resonance (SPR) binding of compound to immobilized OC2-HOX domain
T1 construct: made in house
T1 sequence (O95948 426-485 limits assumed): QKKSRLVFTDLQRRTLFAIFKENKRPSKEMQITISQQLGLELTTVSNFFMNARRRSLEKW
Procedure: FIG. 13 depicts in accordance with various embodiments of the invention, Compound CSRM617 binds to ONECUT2 in a dose-dependent manner. To measure binding features of CSRM617, the OC2-HOX domain was recombinantly produced. Purified OC2-HOX binding domain was next immobilized on a HisCap sensor chip and CSRM617 was analyzed at serial doubling concentrations maximized at 100 μM.
FIG. 25A-FIG. 25C depict in accordance with various embodiments of the invention, FIG. 25A: (Left panel) representative sensorgram showing dose-dependent OC2-Compound CSRM617 interaction measured by surface plasmon resonance (SPR). Real-time binding was quantified by immobilizing biotinylated OC2 protein on the streptavidin biosensor with varying concentrations of Compound CSRM617 1.56-100 μm). (Right panel) OC2 binding to the experimentally determined OC2 binding site on the PEG10 promoter assayed by SPR. FIG. 25B: suppression of PEG10 protein expression in 22Rv1 tumors. FIG. 25C: suppression of PEG10 protein expression in 22Rv1 tumors.
as §1

C4-2 = experiment: Cell-Titer GLO viability / proliferation in C4-2; format: cell-based, human
Procedure: as §2

LNCaP = experiment: Cell proliferation in vitro in LNCaP; format: cell-based, human
Procedure: as §2

22Rv1 xenografts = experiment: Subcutaneous 22Rv1 xenograft growth in mice; format: in vivo; conditions: established 22Rv1 xenografts; 50 mg/Kg/d; 50 mg/kg/day

SMILES	solubility compared with compound CSRM617 [1]	potency (IC50) compared with compound CSRM617 (22Rv1 cells)	cell viability (22Rv1 cells)	direct binding to OC2 [5]	other results
O=C1CCC(C(=O)NCCc2ccc(O)c(O)c2O)CN1 (centres unmarked) [Compound 848]	improved solubility	comparable activity	reduces cell viability	–	–
N[C@@H](CO)C(=O)N/N=C/c1ccc(O)c(O)c1O [CSRM617]	–	–	–	binds directly to OC2	PEG10 mRNA expression (PEG10 mRNA): downregulated in a time-dependent manner; apoptosis [2]: induced apoptosis; cell growth [2]: inhibited cell growth; perturbation of OC2 target genes (GSEA) (OC2 target genes): significant perturbation of OC2 target genes; onset and growth of diffuse metastases (BLI) (22Rv1 metastases): reduces significantly the onset and growth of diffuse metastases; also recorded: inhibited onset and growth of diffuse metastases; body weight [3]: did not affect body weight; feeding patterns or behavior [3]: did not affect; sensitivity (IC50) to compound (22RV1; 22RV1, 48 h incubation): highest sensitivity; cell proliferation in vitro (22RV1; 22Rv1): inhibited cell proliferation; PEG10 protein levels in tumors (PEG10 protein): significantly down-regulated; apoptosis (cleaved Caspase-3 and PARP) [4]: induces apoptosis; Kd ([5]; SPR, serial doubling concentrations up to 100 μM): 7.43 µM; cell proliferation in vitro (C4-2): inhibited cell proliferation; sensitivity (IC50) to compound (C4-2; 48 h incubation): highest sensitivity; cell proliferation in vitro (LNCaP): inhibited cell proliferation; subcutaneous tumor growth (22Rv1 xenografts): reduces tumor growth; also recorded: inhibited subcutaneous growth
NC(=O)C1CCCCN1C(=O)NCCc1ccc(O)c(O)c1O (centres unmarked) [Compound 123]	improved solubility	comparable activity	reduces cell viability	directly bind OC2	–
O=C(CNC(=O)Cc1ccc(O)c(O)c1O)NO [Compound 843]	improved solubility	comparable activity	reduces cell viability	directly bind OC2	–
N[C@@H](CO)C(=O)NNCc1ccc(O)c(O)c1O [Compound 122]	improved solubility	comparable activity	reduces cell viability	directly bind OC2	–
CC(=O)NCCC(=O)NCCc1ccc(O)c(O)c1O [Compound 844]	improved solubility	comparable activity	reduces cell viability	–	–

From patent US10927070B2, “Compositions and methods for treating cancer” (Cedars-Sinai Medical Center, priority 2016, dated 2021)
